Test results published in PubChem BioAssay AID248 (DTP/NCI, 2004).
Several values for one entry are separate records, joined by “and”; a condition that tells them apart may be missing. Identical values can stand only once. Inconclusive results and toxic doses are left out. Cut-off read from the data, not from the text of the source: active = T/C of 150% or more; inactive = T/C below 125%.

System: L1210 leukemia ip in BDF1 mice, survival T/C
Assay: NCI In Vivo Anticancer Drug Screen. Data for tumor model L1210 Leukemia (intraperitoneal) in B6D2F1 (BDF1) mice
Details: endpoint: mean survival time, higher = longer survival
Method in brief: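 Mice bearing the transplanted tumor received compound or vehicle. Survival of the treated group was divided by that of the vehicle-treated control group to give the ratio.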

[1] = dose: 150.0 mg/kg/injection, schedule: Q01DX009 (ip), vehicle: Klucel (hydroxypropylcellulose) (HPC)
[2] = dose: 100.0 mg/kg/injection, schedule: Q01DX009 (ip), vehicle: saline with Tween-80
[3] = dose: 100.0 mg/kg/injection, schedule: Q04DX002 (ip), vehicle: saline with Tween-80
[4] = dose: 200.0 mg/kg/injection, schedule: Q01DX009 (ip), vehicle: saline with Tween-80
[5] = dose: 200.0 mg/kg/injection, schedule: Q04DX002 (ip), vehicle: saline with Tween-80
[6] = dose: 400.0 mg/kg/injection, schedule: Q04DX002 (ip), vehicle: saline with Tween-80
[7] = dose: 100.0 mg/kg/injection, schedule: Q01DX001 (ip), vehicle: saline
[8] = dose: 100.0 mg/kg/injection, schedule: Q04DX003 (ip), vehicle: saline
[9] = dose: 200.0 mg/kg/injection, schedule: Q01DX001 (ip), vehicle: saline
[10] = dose: 100.0 mg/kg/injection, schedule: Q04DX003 (ip), vehicle: saline with Tween-80
[11] = dose: 200.0 mg/kg/injection, schedule: Q04DX003 (ip), vehicle: saline with Tween-80
[12] = dose: 400.0 mg/kg/injection, schedule: Q04DX003 (ip), vehicle: saline with Tween-80
[13] = dose: 100.0 mg/kg/injection, schedule: Q01DX009 (ip), vehicle: Klucel (hydroxypropylcellulose) (HPC)
[14] = dose: 200.0 mg/kg/injection, schedule: Q01DX009 (ip), vehicle: Klucel (hydroxypropylcellulose) (HPC)
[15] = dose: 400.0 mg/kg/injection, schedule: Q01DX009 (ip), vehicle: Klucel (hydroxypropylcellulose) (HPC)
[16] = dose: 50.0 mg/kg/injection, schedule: Q01DX009 (ip), vehicle: saline with Tween-80
[17] = dose: 400.0 mg/kg/injection, schedule: Q01DX001 (ip), vehicle: saline

Measured: T/C

Cc1cc(C(=O)O)c(C)n1-c1ccccc1
inactive: dose: 75.0 mg/kg/injection, schedule: Q01DX009 (ip), vehicle: Klucel (hydroxypropylcellulose) (HPC) 100 % of control | [1] 95 % of control | dose: 300.0 mg/kg/injection, schedule: Q01DX009 (ip), vehicle: Klucel (hydroxypropylcellulose) (HPC) 92 % of control

CC(=O)c1cc2cc(Cl)cc(Cl)c2oc1=O
inactive: [2] 94 % of control | [3] 95 % of control | [4] 91 % of control | [5] 100 % of control | [6] 92 % of control

O=C(O)CC(CC(=O)O)n1cccc1
inactive: dose: 75.0 mg/kg/injection, schedule: Q01DX001 (ip), vehicle: acetone 96 % of control | dose: 150.0 mg/kg/injection, schedule: Q01DX001 (ip), vehicle: acetone 91 % of control | dose: 300.0 mg/kg/injection, schedule: Q01DX001 (ip), vehicle: acetone 94 % of control

S=P(Oc1ccccc1)(N1CC1)N1CC1
inactive: dose: 25.0 mg/kg/injection, schedule: Q01DX009 (ip), vehicle: acetone 98 % of control | dose: 50.0 mg/kg/injection, schedule: Q01DX009 (ip), vehicle: acetone 98 % of control | dose: 50.0 mg/kg/injection, schedule: Q04DX003 (ip), vehicle: saline 100 % of control | [7] 87 % of control | dose: 100.0 mg/kg/injection, schedule: Q01DX009 (ip), vehicle: acetone 93 % of control | [8] 92 % of control | dose: 150.0 mg/kg/injection, schedule: Q01DX009 (ip), vehicle: saline 87 % of control | [9] 94 % of control | dose: 225.0 mg/kg/injection, schedule: Q01DX009 (ip), vehicle: saline 87 % of control

Cn1c(CCl)nc2c1c(=O)[nH]c(=O)n2C
inactive: dose: 100.0 mg/kg/injection, schedule: Q01DX001 (ip), vehicle: other 95 % of control

Brc1ccc(C[N+]23CN4CN(CN(C4)C2)C3)cc1
inactive: dose: 15.0 mg/kg/injection, schedule: Q01DX015 (ip), vehicle: saline 103 % of control | dose: 30.0 mg/kg/injection, schedule: Q01DX015 (ip), vehicle: saline 102 % of control | dose: 60.0 mg/kg/injection, schedule: Q01DX015 (ip), vehicle: saline 102 % of control | [2] 101 % of control | [8] 105 % of control | dose: 120.0 mg/kg/injection, schedule: Q01DX015 (ip), vehicle: saline 105 % of control | [4] 102 % of control | dose: 200.0 mg/kg/injection, schedule: Q04DX003 (ip), vehicle: saline 103 % of control | dose: 240.0 mg/kg/injection, schedule: Q01DX015 (ip), vehicle: saline 98 % of control | dose: 400.0 mg/kg/injection, schedule: Q04DX003 (ip), vehicle: saline 92 % of control

CCCCCCCCCCCCCCCCCCSCCOCCSCCCCCCCCCCCCCCCCCC
inactive: dose: 100.0 mg/kg/injection, schedule: Q01DX001 (ip), vehicle: Klucel (hydroxypropylcellulose) (HPC) 87 % of control | dose: 400.0 mg/kg/injection, schedule: Q01DX001 (ip), vehicle: Klucel (hydroxypropylcellulose) (HPC) 88 % of control

CN(C)c1ccc(N=Nc2ccc(C(C)(C)C)cc2)cc1
inactive: [2] 97 % of control | [10] 95 % of control | [4] 94 % of control | [11] 86 % of control | dose: 400.0 mg/kg/injection, schedule: Q01DX009 (ip), vehicle: saline with Tween-80 89 % of control | [12] 96 % of control

Nc1nc(N)c(CCCc2ccccc2)c(N)n1
inactive: dose: 100.0 mg/kg/injection, schedule: Q04DX002 (ip), vehicle: Klucel (hydroxypropylcellulose) (HPC) 87 % of control

Clc1ccc(Br)c(Cl)c1
inactive: [13] 98 % of control | dose: 100.0 mg/kg/injection, schedule: Q04DX003 (ip), vehicle: Klucel (hydroxypropylcellulose) (HPC) 94 % of control | [14] 94 % of control | dose: 200.0 mg/kg/injection, schedule: Q04DX003 (ip), vehicle: Klucel (hydroxypropylcellulose) (HPC) 109 % of control | [15] 92 % of control | dose: 400.0 mg/kg/injection, schedule: Q04DX003 (ip), vehicle: Klucel (hydroxypropylcellulose) (HPC) 93 % of control

Cc1ccc(CNc2ccc([N+](=O)[O-])cc2)cc1
inactive: [16] 92 % of control | [2] 103 % of control | [10] 93 % of control | [4] 97 % of control | [11] 101 % of control | [12] 88 % of control

CCCC[P+](CCCC)(CCCC)C(C)C
inactive: dose: 12.0 mg/kg/injection, schedule: Q01DX009 (ip), vehicle: saline with Tween-80 97 % of control | dose: 25.0 mg/kg/injection, schedule: Q01DX009 (ip), vehicle: saline with Tween-80 97 % of control | dose: 25.0 mg/kg/injection, schedule: Q04DX003 (ip), vehicle: saline with Tween-80 101 % of control | dose: 50.0 mg/kg/injection, schedule: Q04DX003 (ip), vehicle: saline with Tween-80 99 % of control

O=[N+]([O-])c1ccc(S(=O)(=O)C2CCCCC2Cl)c([N+](=O)[O-])c1 (stereo not drawn)
inactive: dose: 50.0 mg/kg/injection, schedule: Q01DX001 (ip), vehicle: carboxymethylcellulose (CMC) 95 % of control | dose: 100.0 mg/kg/injection, schedule: Q01DX001 (ip), vehicle: carboxymethylcellulose (CMC) 111 % of control | dose: 200.0 mg/kg/injection, schedule: Q01DX001 (ip), vehicle: carboxymethylcellulose (CMC) 106 % of control | dose: 400.0 mg/kg/injection, schedule: Q01DX001 (ip), vehicle: carboxymethylcellulose (CMC) 101 % of control

CCOC(=O)c1n[nH]c2ccccc12
inactive: [3] 101 % of control | [5] 106 % of control | [6] 97 % of control

C[N+](C)(C)C1CCCCC1
inactive: dose: 75.0 mg/kg/injection, schedule: Q01DX001 (ip), vehicle: saline 110 % of control and 106 % of control | dose: 150.0 mg/kg/injection, schedule: Q01DX001 (ip), vehicle: saline 105 % of control and 106 % of control

CN1C(=O)C(Br)C(C)(Br)c2ccccc21 (stereo not drawn)
inactive: [7] 93 % of control | [9] 101 % of control | [17] 92 % of control

CC1(C)OC2C(C(=O)NO)OC(n3cnc4c(N)ncnc43)C2O1 (stereo not drawn)
inactive: dose: 100.0 mg/kg/injection, schedule: Q01DX005 (ip), vehicle: saline 101 % of control | dose: 200.0 mg/kg/injection, schedule: Q01DX005 (ip), vehicle: saline 101 % of control

O=C(Nc1nccs1)Nc1ccc(Cl)cc1Cl
inactive: [16] 91 % of control | [2] 98 % of control | [4] 109 % of control

CCC(C(=O)O)C(C)(C)O (stereo not drawn)
inactive: [7] 93 % of control | [9] 93 % of control | [17] 103 % of control

CCCCCCCCN(C)N=Nc1ccc(Cl)cc1C(=O)O
inactive: [1] 117 % of control

C[Si](C)(C)Cc1ccc(F)cc1
inactive: dose: 25.6 mg/kg/injection, schedule: Q04DX002 (ip), vehicle: saline with Tween-80 90 % of control | dose: 64.0 mg/kg/injection, schedule: Q04DX002 (ip), vehicle: saline with Tween-80 93 % of control | [10] 93 % of control | dose: 160.0 mg/kg/injection, schedule: Q04DX002 (ip), vehicle: saline with Tween-80 97 % of control | [11] 97 % of control | [6] 97 % of control | [12] 93 % of control

CC1(C)N=C(N)N=C(N)N1c1cccc(C(=O)Nc2ccc(S(=O)(=O)F)cc2)c1
inactive: dose: 0.8 mg/kg/injection, schedule: Q01DX009 (ip), vehicle: saline 98 % of control | dose: 4.0 mg/kg/injection, schedule: Q01DX009 (ip), vehicle: saline 101 % of control | dose: 20.0 mg/kg/injection, schedule: Q01DX009 (ip), vehicle: saline 98 % of control

COc1ccc(Cl)cc1NS(=O)(=O)c1cccc([N+](=O)[O-])c1
inactive: [13] 96 % of control | [14] 98 % of control | [15] 91 % of control

COc1ccc2nc(C)oc2c1
inactive: dose: 100.0 mg/kg/injection, schedule: Q04DX003 (ip), vehicle: acetone 97 % of control | dose: 200.0 mg/kg/injection, schedule: Q04DX003 (ip), vehicle: acetone 95 % of control | dose: 400.0 mg/kg/injection, schedule: Q04DX003 (ip), vehicle: acetone 97 % of control
